According to patent US20210060125A1, “METHOD AND USE OF PnPP-19 FOR PREVENTING AND TREATING EYE DISEASES” (priority 2019, published 2021):
Entries after “also recorded” stand apart in the source; their conditions may differ.

What was measured:
[1] = tested on: Hen's egg chorioallantoic membranes (HET-CAM); assay: HET-CAM ocular irritation model; parameters: key to Irritability classification: NI = Non- irritant; SI = severely irritant; settings: for OII ± SD (mean cumulative score) / OII ± SD: mean ± S.D., n = 6
Method: Hen's egg—chorioallantoic membranes (HET-CAM) were used to assess anti-irritant properties of different concentrations of PnPP-19. PnPP-19 was dissolved in 300 μL of saline in order to achieve the concentration of 40 μg, 80 μg, 160 μg, 320 μg, in 20 μL (the volume of one eye drop). Sodium chloride 0.9% (NaCl) was used as negative control and sodium hydroxide 0.1 M (NaOH) as a positive control.
The reactions were classified according to a semi-quantitatively analysis, on a scale from 0 (no reaction) to 3 (strong reaction). The ocular irritation index (OII) was then calculated by the following expression: […]
where h is time (in seconds) from the beginning of bleeding; l lysis, and c coagulation. The following classification was used: OII≤0.9: […]; 0.9<OII≤4.9: moderately irritant; 4.9<OII≤8.9: irritant; 8.9<OII≤21: severely irritant.

[2] = tested on: ocular hypertensive rabbits; settings: hypertonic saline into the vitreous body; cited from earlier work
Human glaucoma = settings: cited from earlier work
[3] = tested on: HA-induced glaucoma in rats; settings: cited from earlier work
Glaucomatous dogs = settings: cited from earlier work
[4] = tested on: glaucomatous male Wistar rats; type: in vivo, rat; settings: 72 hours after PnPP-19 instillation
Method: The effectiveness of the PnPP-19 was first evaluated by measuring the changes in IOP of glaucomatous male Wistar rats (180-220 g, 7 to 10 weeks old, n=6). Glaucoma was induced in the right eye by the injection of 30 μL hyaluronic acid (HA) (10 mg/mL) into the anterior chamber through the clear cornea once per week for 3 weeks on the same calendar day and at the same time. Evaluation of the IOP was performed using a TonoPen (Tono-PenVet, Reichert). To perform the measurements, unsedated animals were topically anesthetized by the instillation of 0.5% proxymetacaine hydrochloride. Three IOP readings (with SE less than 5%) were taken for each eye. The average of these three readings was considered the corresponding value of the IOP. Electroretinogram (ERG) was recorded before and after the glaucoma induction. Eyes were enucleated and corneas and retinas were prepared for histology. The groups of treatment were defined as Healthy or non-glaucomatous—left eye, where HA was not applied; Glaucomatous, Non-treated—right eye, where HA was applied, treated with control (vehicle, saline); […]
The effects of PnPP-19 on rat's vision at the end of the HA glaucomatous model was analyzed by ERG to evaluate if the peptide impacts the visual acuity. […]

[5] = tested on: male normotensive Wistar rat eye; assay: Eye permeation and diffusion of fluorescence-labeled PnPP-19; type: in vivo; settings: 80 μg/20 μl eye drop in saline; 3 hours
Method: Fluorescence-labeled PnPP-19 (FITC) was applied topically in form of eye drops (peptide dissolved in saline) in a dose of 80 μg/20 μl in the male normotensive Wistar rat eye. Vehicle (saline) was applied in the contralateral eye to be used as control. After 3 hours the eyes were enucleated and prepared for histological analysis using fluorescence microscope APOTOME.2 ZEISS.

[6] = tested on: male Wistar rats with retinal ischemia; assay: Ischemic retina model, study 2 (pre-treatment or prevention); type: in vivo, rat; settings: pre-treatment; 3 cd.s.m−2, scotopic; n=6
Method: The potential neuroprotective effect of PnPP-19 in the retina was investigated with an animal model of ischemic injury. For this purpose, male Wistar rats were treated with PnPP-19 either before or after induction of ischemia (80 μg in 20 μl (one eye drop) once a day administration for seven days).
Male Wistar rats (180-200 g) were anesthetized intraperitoneally with ketamine hydrochloride 90 mg/kg and xylazine hydrochloride 10.0 mg/kg and the retinas were made ischemic according to the protocols of Hughes (HUGHES, W. F. Quantitation of ischemic damage in the rat retina. Exp Eye Res, 53(5): 573-82, 1991), and of Louzada-Junior et al. (Louzada-Junior, P., Dias, J. J., Santos, W. F., Lachat, J. J., Bradford, H. F., Coutinho-Netto, J. Glutamate Release in Experimental Ischaemia of the Retina: An Approach Using Microdialysis. J Neurochem, 59(1):358-63, 1992). IOP was elevated by cannulating the eye anterior chamber, with a sterile 27-gauge needle attached to a manometer/pump connected to an air reservoir (HUGHES, W. F. Quantitation of ischemic damage in the rat retina. Exp Eye Res, 53(5): 573-82, 1991) elevating the IOP to 155 mmHg for 40 min evoking ischemia (indicated by whitening of the eye fundus as blood flow is interrupted). […]
We measured different layer thicknesses to quantify the degree of cell loss to measure the ischemic damage in the rat retina. […]

healthy subjects = assay: Phase 1 clinical trial, safety, tolerability and IOP; type: in vivo, human
Method: Twelve healthy subjects, 6 males and 6 females, were selected to evaluate the safety and tolerability of PnPP-19. PnPP-19 were applied as one eye drop per day (with 250 μg of peptide in 50 μL saline (0.5%)) for 7 days, in one eye, while vehicle (the formulation without the peptide) was applied in the contralateral eye. The eye were randomized in a double-blind way to each intervention.
The safety was analyzed by an ophthalmologist thought a slit lamp in conjunction with a biomiscrscope to examine the anterior and posterior segment of the eye. This procedure was performed in both eyes, in each subject, in the days 1, 2, 3, 4 and 7 of the treatment.
The tolerability was analyzed thought a daily tolerability questionnaire. […] One patient reported mild headache, that last minutes.
IOP was measured with a non-contact tonometer before and 1,2,4 6 and 24 hours after the instillations of PnPP-19 or vehicle.

normotensive Wistar rats = assay: In vivo single-dose acute toxicology, topical eye drops; parameters: species or system rat; settings: single topical dose 40, 80, 160 μg in 20 μL
Method: Single-dose topical application of PnPP-19 was dissolved in 300 of saline at the dose of 40, 80 and 160 μg, in 20 μL of saline, in the form of eye drops, was evaluated in normotensive Wistar rats (150-200 g), n=4 rats per dose group. Fundoscopy and electroretinography were performed at days 0, 1, 7 and 15 after PnPP-19 administration. At day 15, eye tissue was collected to histopathological analysis. Day 0 was considered as a control time point for any dose to evaluate for observed differences.

[7] = all concentrations tested (40-320 μg in 20 μL)
[8] = daily tolerability questionnaire, n=12

## [Na+].[OH-] [0.1M NaOH, sodium hydroxide, reference compound]
[1]; 0.1 M, positive control
  Irritability classification: SI
  irritancy ranking in words: severely irritant (8.9<OII≤21: severely irritant)
  OII ± SD (mean cumulative score): 21.11 ± 0.32
[1]; 0.1 M, positive control, listed as 0.1 M NaOH
  OII ± SD (mean cumulative score): 21.11±0.32

## CC(C)OC(=O)CCC/C=C\C[C@@H]1[C@@H](CC[C@@H](O)CCc2ccccc2)[C@H](O)C[C@@H]1O [Latanoprost]
[2]
  effect on ocular hypertension: not
Human glaucoma
  Average IOP reduction (%): 13.1%
[3]
  Average IOP reduction (%): 28.1%

## O=C(CCC/C=C\C[C@@H]1[C@@H](CC[C@@H](O)CCc2ccccc2)[C@H](O)C[C@@H]1O)OCCCCO[N+](=O)[O-] [Latanoprostene Bunod]
Glaucomatous dogs
  reduction in IOP: 44%
[2]
  effect on ocular hypertension: significantly blunted
Human glaucoma
  Average IOP reduction (%): 31%

## CC(C)(C)NC[C@H](O)COc1nsnc1N1CCOCC1 [Timolol]
Human glaucoma
  Average IOP reduction (%): 18%
[3]
  Average IOP reduction (%): 25.3%

## Ac-GERRQYFWIAWYKLANSKK-NH2 (N-terminus and C-terminus assumed) [PnPP-19, Gly Glu Arg Arg Gln Tyr Phe Trp Ile Ala Trp Tyr Lys Leu Ala Asn Ser Lys Lys]
[4]
  Dark-adapted ERG vs glaucomatous non-treated group: no difference
[1]; 40 μg in 20 μL saline
  Irritability classification: NI
  OII ± SD: ≤0.9 ± 0.0
[1]; 80 μg in 20 μL saline
  Irritability classification: NI
  OII ± SD: ≤0.9 ± 0.0
[1]; 160 μg in 20 μL saline
  Irritability classification: NI
  OII ± SD: ≤0.9 ± 0.0
[1]; 320 μg in 20 μL saline
  Irritability classification: NI
  OII ± SD: ≤0.9 ± 0.0
[1]; [7]
  irritancy ranking in words: non-irritant
  mean cumulative scores (OII): ≤ 0.9
[1]; all concentrations tested, observed up to 5 min
  signs of vascular response: did not show any signs of vascular response
[5]
  Fluorescence in cornea, vitreous body and retina vs vehicle: permeates the cornea and reaches the retina
[6]
  ERG b-amp/a-amp ratio: an increasing tendency in b/a ratio; also recorded: prevents vision loss
Healthy subjects; 250 μg in 50 μL saline (0.5%), one drop per day for 7 days, n=12
  Safety, slit lamp examination of anterior and posterior segment: no safety finding
Healthy subjects; 250 μg in 50 μL, one drop per day for 7 days, n=12
  Blood pressure, heart rate, weight, physical examination, electrocardiogram: no difference in blood pressure, heart rate, weight, physical examination and electrocardiogram results
Healthy subjects; daily tolerability questionnaire, four events reported
  Relation of reported adverse events to treatment (investigator): none of those adverse events were related to PnPP-19
Healthy subjects; [8]
  Eye burning after instillation: in one patient
  Puritis in the eye after instillation: one patient
Normotensive Wistar rats; day 15, n=4
  Histological morphology of cornea and retina: keeps the same morphology; also recorded: does not alter the retinal morphology; also recorded: does not alter the cornea morphology
Normotensive Wistar rats; days 1, 7, 15, n=4 per dose
  Fundoscopy vs day 0: No difference was observed; also recorded: does not affect retinal vessels
Normotensive Wistar rats; up to day 15
  Electroretinography a and b wave vs day 0: absence of retinal nerve damage

## Latanoprost
Glaucomatous dogs
  reduction in IOP: 27%
